Source: publication PMC5104426, “Screening a Phage Display Library for Two Novel OmpU-Binding Peptides with Adhesion Antagonistic Activity against Vibrio mimicus” (PLoS ONE, 2016)
Where “and” joins values, the source holds several entries; their conditions need not be identical. Identical values can stand only once.

Legend:
V. mimicus 04–14 isolate = experiment: Protective effects on grass carps challenged with V. mimicus; format: in vivo, Vibrio mimicus; details: for Mortality rate / Survival rate: n = 10, 7 days; for No. of dead fish post challenge, 2d: n = 10, day 2; for No. of dead fish post challenge, 3d: n = 10, day 3; for No. of dead fish post challenge, 4d: n = 10, day 4; for No. of dead fish post challenge, 5d: n = 10, day 5; for No. of dead fish post challenge, 6d: n = 10, day 6; for No. of dead fish post challenge, 7d: n = 10, day 7; for No. of dead fish: n = 10, total over 7 days; for No. of dead fish post challenge, 1d: n = 10, day 1
Experimental: (§1) Healthy grass carps weighting 50–52 g were purchased from a commercial fish farm in Anhui province of China, and then were maintained in a flow-through water system at a temperature of 25 ± 1°C and fed commercial pellets on a daily basis. After 14 days when grass carps were confirmed to be healthy, the water temperature was increased to 28 ± 1°C slowly, and the experiment began.
The experimental grass carps were randomly divided into 9 groups (named A-I group, n = 10 in each group). Groups A-C were injected intraperitoneally with P1 at a dose of 10 mg/kg/d, 20 mg/kg/d and 30 mg/kg/d, respectively; Groups D-F were given the same dosages of P2, respectively; Group G was given with 30 mg/kg/d of unrelated control peptide. After 3 days of continuous peptides injection, each fish in groups A-G was challenged intraperitoneally with 200 μL PBS containing 6 × 10^6 cells of V.mimicus 04–14 isolate (equal to the minimal lethal dose determined by preliminary test), respectively. Group H (infection control group) was only inoculated with 04–14 isolate at the minimal lethal dose; Group I (negative control group) was only inoculated with 0.65% sterile saline. Survival of the fish was monitored every 12 h for 7 days post-challenge. At the end of the 7 day observation period, all surviving fish were euthanized in a solution of 200 mg/L of MS-222 followed by a blow to the head.
The survival experiment was performed in accordance with the practices reported in recent studies on antibacterial efficacy of peptides in vivo, protective efficacy of vaccine and bacterial virulence. Death was used as an endpoint in these studies (with no indication of use of humane euthanasia). In animal toxicity and efficacy assays of the adhesion antagonistic peptides, we used death as the endpoint as early, reliable and unbiased biomarkers that can be used as indicators of disease severity are lacking. There is difficulty in reliably differentiating fish that will die from those which will recover, despite showing clinical signs precluding use of humane euthanasia. In addition, interpretation of clinical signs can itself be subjective in the absence of quantifiable indicators of disease severity. For these reasons, the ethical committee of Anhui Agricultural University has assessed the possibility of deaths in the animal toxicity and efficacy assays and also allowed probably unavoidable animal deaths.

[1] = test system: V. mimicus 04–14 isolate adhesion to EPC cells; experiment: Peptide adhesion inhibition test: V. mimicus adhesion to EPC cells; format: cell-based, Vibrio mimicus; details: 500 μg/mL peptide mixed with equal volume of V. mimicus 04–14 (2 × 10^7 CFU/mL), 1 h 28°C, then 1 h on EPC cells, crystal violet, 30 cells counted, mean ± SD, triplicate
Experimental: When EPC cells grown in 24-well plate containing coverslips formed a confluent monolayer, the medium was changed to RPMI-1640 medium without serum and antibiotics for 2 h. Subsequently, 500 μg/mL of each OmpU-binding peptide or unrelated control peptide solution were respectively mixed with an equal volume of V. mimicus isolate 04–14 suspension (2 × 10^7 CFU/mL) and incubated for 1 h at 28°C. The mixture was added to each well, and then the plates were incubated for 1 h at 28°C. After 3 times washes, EPC cells were fixed with cooled methanol for 10 min, stained with crystal violet and examined under a light microscope at a magnification of ×1,000. Thirty cells were randomly selected to count the number of adhering bacterial per slide. Each experiment was performed in triplicate, with each sample being repeated in 3 cell wells.

grass carps = experiment: Acute toxicity to grass carps; format: in vivo, Ctenopharyngodon idella; details: 100 mg/kg i.p., six fish per group; for survival in the 7-day study period: 7 days
Experimental: as §1
For acute toxicity detection, synthetic P1, P2 and unrelated control peptide was dissolved in sterile deionized water, respectively, and given to grass carps by intraperitoneal (i.p.) injection at a dose of 100 mg/kg, six fish per group. The number of fish surviving in each group was monitored for up to a period of 7 days after injection. At the end of the experiments, all surviving fish were euthanized in a solution of 200 mg/L of MS-222 followed by a blow to the head.

rOmpU fusion protein = experiment: Solid phase non-competitive ELISA (Beatty method), affinity constant; format: binding, Vibrio mimicus; details: for affinity constant: peptide coated 2.5-40 μg/mL, rOmpU 0.2-12.8 μg/mL, modified Beatty formula, triplicate, mean ± SD, SD; for AAP concentration at 50% OD492nm: from fitted curve equation
Experimental: To determine the binding affinity of interactions between adhesion antagonistic peptide and rOmpU fusion protein, solid phase non-competitive ELISA method (also known as the Beatty method) was used to measure the affinity constant of adhesion antagonistic peptide. Briefly, adhesion antagonistic peptides were diluted to 40 μg/mL, 20 μg/mL, 10 μg/mL, 5 μg/mL and 2.5 μg/mL, respectively, and laterally coated onto plate wells (100 μL/well) at 4°C overnight. Next day, each well was blocked with 5% BSA at 37°C for 2 h, and then washed 6 times with TBST. Subsequently, rOmpU fusion protein were diluted to 12.8 μg/mL, 3.2 μg/mL, 0.8 μg/mL and 0.2 μg/mL, respectively, and longitudinally added to coated wells (100 μL/well), and the plates were incubated for 2 h at 37°C. After thorough washing, rabbit anti-rOmpU protein antibody, HRP labeled goat anti-rabbit IgG and substrate solution was added in turn, each step was preceded by 6 washes in TBST. OD492 nm values were finally determined. With OD492nm values as the ordinate and adhesion antagonistic peptide concentration as the abscissa, the binding reaction curves between adhesion antagonistic peptide and rOmpU fusion protein at different concentrations were plotted. MATLAB version 7.0 was used to fitting the binding response curve, and to derive the curve equation. From the equation, the corresponding adhesion antagonistic peptide concentration at 50% OD492nm value in the curve was obtained. The affinity constant K was calculated using a modified version of the Beatty formula [affinity constant (K) = (n—1) / 2 (nAb'total- Abtotal)] [11]. Ab'total and Abtotal in the formula represent respectively the corresponding adhesion antagonistic peptide concentration at 50% OD492nm value in the binding response curve when the concentration of rOmpU protein was P' and P; n represents P/P'. This assay was performed in triplicate.

[2] = 10 mg/kg/d i.p. for 3 days before challenge
[3] = 10 mg/kg/d i.p. for 3 days before i.p. challenge with 6 × 10^6 cells
[4] = 20 mg/kg/d i.p. for 3 days before challenge
[5] = 30 mg/kg/d i.p. for 3 days before challenge

Row | Sequence | Mortality rate (V. mimicus 04–14 isolate; [2]) [%] | Survival rate (V. mimicus 04–14 isolate; [2]) [%] | No. of dead fish post challenge, 2d (V. mimicus 04–14 isolate; [2]) | No. of dead fish post challenge, 3d (V. mimicus 04–14 isolate; [2]) | No. of dead fish post challenge, 4d (V. mimicus 04–14 isolate; [2]) | No. of dead fish post challenge, 5d (V. mimicus 04–14 isolate; [2]) | No. of dead fish post challenge, 6d (V. mimicus 04–14 isolate; [2]) | No. of dead fish post challenge, 7d (V. mimicus 04–14 isolate; [2]) | No. of dead fish (V. mimicus 04–14 isolate; [2]) | No. of dead fish post challenge, 1d (V. mimicus 04–14 isolate; [3]) | Mortality rate (V. mimicus 04–14 isolate; [4]) [%] | Survival rate (V. mimicus 04–14 isolate; [4]) [%] | No. of dead fish post challenge, 1d (V. mimicus 04–14 isolate; [4]) | No. of dead fish post challenge, 2d (V. mimicus 04–14 isolate; [4]) | No. of dead fish post challenge, 3d (V. mimicus 04–14 isolate; [4]) | No. of dead fish post challenge, 4d (V. mimicus 04–14 isolate; [4]) | No. of dead fish post challenge, 5d (V. mimicus 04–14 isolate; [4]) | No. of dead fish post challenge, 6d (V. mimicus 04–14 isolate; [4]) | No. of dead fish post challenge, 7d (V. mimicus 04–14 isolate; [4]) | No. of dead fish (V. mimicus 04–14 isolate; [4]) | also measured
1 | SCTSPHCFMWLP [P2, adhesion antagonistic peptide] | 80 | 20 | 4 | 3 | 1 | 0 | 0 | 0 | 8 | 0 | 60 | 40 | 0 | 2 | 3 | 1 | 0 | 0 | 0 | 6 | Mortality rate (V. mimicus 04–14 isolate; [5]): 40%; Survival rate (V. mimicus 04–14 isolate; [5]): 60%; No. of dead fish post challenge, 1d (V. mimicus 04–14 isolate; [5]): 0; No. of dead fish post challenge, 2d (V. mimicus 04–14 isolate; [5]): 2; No. of dead fish post challenge, 3d (V. mimicus 04–14 isolate; [5]): 2; No. of dead fish post challenge, 4d (V. mimicus 04–14 isolate; [5]): 0; No. of dead fish post challenge, 5d (V. mimicus 04–14 isolate; [5]): 0; No. of dead fish post challenge, 6d (V. mimicus 04–14 isolate; [5]): 0; No. of dead fish post challenge, 7d (V. mimicus 04–14 isolate; [5]): 0; No. of dead fish (V. mimicus 04–14 isolate; [5]): 4; average number of adhesion around each cell [1]: 3.4 ± 0.8; immediate adverse events (enervation or feed intake reduction) (grass carps): no immediate adverse events; survival in the 7-day study period (grass carps): all the treated fish survived; affinity constant (rOmpU fusion protein): (1.24 ± 0.56) × 10^9 L/mol; AAP concentration at 50% OD492nm (rOmpU fusion protein; rOmpU concentration 0.2 μg/mL): 0.70 µg/mL; AAP concentration at 50% OD492nm (rOmpU fusion protein; rOmpU concentration 0.8 μg/mL): 0.57 µg/mL; AAP concentration at 50% OD492nm (rOmpU fusion protein; rOmpU concentration 3.2 μg/mL): 0.56 µg/mL; AAP concentration at 50% OD492nm (rOmpU fusion protein; rOmpU concentration 12.8 μg/mL): 0.55 µg/mL
2 | TWTCSDVICTAR [P1, adhesion antagonistic peptide] | 90 | 10 | 5 | 2 | 2 | 0 | 0 | 0 | 9 | 0 | 80 | 20 | 0 | 4 | 2 | 2 | 0 | 0 | 0 | 8 | Mortality rate (V. mimicus 04–14 isolate; [5]): 60%; Survival rate (V. mimicus 04–14 isolate; [5]): 40%; No. of dead fish post challenge, 1d (V. mimicus 04–14 isolate; [5]): 0; No. of dead fish post challenge, 2d (V. mimicus 04–14 isolate; [5]): 2; No. of dead fish post challenge, 3d (V. mimicus 04–14 isolate; [5]): 3; No. of dead fish post challenge, 4d (V. mimicus 04–14 isolate; [5]): 1; No. of dead fish post challenge, 5d (V. mimicus 04–14 isolate; [5]): 0; No. of dead fish post challenge, 6d (V. mimicus 04–14 isolate; [5]): 0; No. of dead fish post challenge, 7d (V. mimicus 04–14 isolate; [5]): 0; No. of dead fish (V. mimicus 04–14 isolate; [5]): 6; average number of adhesion around each cell [1]: 5.1 ± 0.7 and 5.1 ± 0.6; immediate adverse events (enervation or feed intake reduction) (grass carps): no immediate adverse events; survival in the 7-day study period (grass carps): all the treated fish survived; affinity constant (rOmpU fusion protein): (6.17 ± 0.19) × 10^8 L/mol; AAP concentration at 50% OD492nm (rOmpU fusion protein; rOmpU concentration 0.2 μg/mL): 1.12 µg/mL; AAP concentration at 50% OD492nm (rOmpU fusion protein; rOmpU concentration 0.8 μg/mL): 1.05 µg/mL; AAP concentration at 50% OD492nm (rOmpU fusion protein; rOmpU concentration 3.2 μg/mL): 0.98 µg/mL; AAP concentration at 50% OD492nm (rOmpU fusion protein; rOmpU concentration 12.8 μg/mL): 0.86 µg/mL
